These results are taken from patent US20240018118A1, “TRICYCLIC COMPOUNDS TO DEGRADE NEOSUBSTRATES FOR MEDICAL THERAPY” (C 4 Therapeutics, Inc., priority 2020, published 2024).

Assay [1] has as its target SALL4 (Homo sapiens, UniProt Q96SW2+Q9UJQ4). Kind of assay: HiBiT degradation assay, KELLY.2 (SALL4-HiBiT) cells. The format is cell-based. The conditions noted are these: for DC50: KELLY.2 cells, 6 hours; for Emax: read-out: HiBiT-Degradation KELLY.2 SALL4 6 hours Emax, KELLY.2 cells. The protocol: RPMI 1640 Medium without phenol red, fetal bovine serum (FBS), and Sodium Pyruvate (100 mM) were purchased from Gibco (Grand Island, NY, USA). Nano-Glo® HiBiT Lytic Assay System was purchased from Promega (Madison, WI, USA). […] Cell culture flasks and 384-well microplates were acquired from VWR (Radnor, PA, USA).
SALL4 degradation was determined based on quantification of luminescent signal using Nano-Glo® HiBiT Lytic Assay kit. Test compounds were added to the 384-well plate from a top concentration of 10 μM with 11 points, half log titration in duplicates. KELLY.2 cells were added into 384-well plates at a cell density of 6000 cells per well. The plates were kept at 37° C. with 5% CO2 for 6 hours. The cells treated in the absence of the test compound were the negative control and the cells without Nano-Glo® HiBiT Lytic reagent were the positive control. After 6-hour incubation, Nano-Glo® HiBiT Lytic Assay reagents were added to the cells. Luminescence was acquired on EnVision™ Multilabel Reader (PerkinElmer, Santa Clara, CA, USA).
(With HiBiT, luminescence reflects the tagged protein that the partner subunit can reach.)

The target of assay [2] is GSPT1 (Homo sapiens, UniProt P15170+Q96SW2). Kind of assay: HiBiT degradation assay, 293T.114 cells, GSPT1. Format: cell-based. The protocol: GSPT1 degradation was determined based on quantification of luminescent signal using Nano-Glo® HiBiT Lytic Assay kit. Test compounds were added to the 384-well plate from a top concentration of 10 μM with 5 points, 3-fold titration in quadruplicates. 293T.114 cells were added into 384-well plates at a cell density of 6000 cells per well. […] The cells treated in the absence of the test compound were the negative control and the cells without Nano-Glo® HiBiT Lytic reagent were the positive control. […] Luminescence was acquired on EnVision™ Multilabel Reader (PerkinElmer, Santa Clara, CA, USA).
Sequence of GSPT1 (P15170 whole entry): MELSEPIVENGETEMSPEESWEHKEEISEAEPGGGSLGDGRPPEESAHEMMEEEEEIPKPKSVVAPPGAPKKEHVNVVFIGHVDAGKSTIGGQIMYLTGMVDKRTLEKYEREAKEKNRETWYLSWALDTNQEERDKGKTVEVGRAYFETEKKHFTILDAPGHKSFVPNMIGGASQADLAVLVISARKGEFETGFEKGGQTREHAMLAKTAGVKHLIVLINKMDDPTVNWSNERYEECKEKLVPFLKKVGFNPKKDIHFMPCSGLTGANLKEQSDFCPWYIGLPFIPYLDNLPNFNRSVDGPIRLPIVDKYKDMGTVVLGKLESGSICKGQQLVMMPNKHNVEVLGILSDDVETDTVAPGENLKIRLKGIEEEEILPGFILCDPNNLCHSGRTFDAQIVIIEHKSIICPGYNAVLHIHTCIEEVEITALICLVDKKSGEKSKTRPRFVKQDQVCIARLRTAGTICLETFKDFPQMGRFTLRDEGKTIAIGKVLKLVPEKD
Sequence of GSPT1 (Q96SW2 whole entry): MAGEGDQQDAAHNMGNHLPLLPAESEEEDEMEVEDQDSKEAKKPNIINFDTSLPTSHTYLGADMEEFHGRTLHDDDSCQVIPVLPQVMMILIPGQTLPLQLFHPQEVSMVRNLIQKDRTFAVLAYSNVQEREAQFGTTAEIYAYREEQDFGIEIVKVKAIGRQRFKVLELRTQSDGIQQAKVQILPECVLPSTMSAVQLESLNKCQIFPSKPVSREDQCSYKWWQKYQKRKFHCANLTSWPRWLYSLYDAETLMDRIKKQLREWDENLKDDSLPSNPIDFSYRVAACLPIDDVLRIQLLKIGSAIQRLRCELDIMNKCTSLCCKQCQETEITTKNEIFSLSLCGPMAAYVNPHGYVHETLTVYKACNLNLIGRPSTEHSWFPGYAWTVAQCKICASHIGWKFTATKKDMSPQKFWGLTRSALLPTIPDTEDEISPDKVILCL
Sequence of GSPT1 (Q16531 2-1140 partner limits assumed): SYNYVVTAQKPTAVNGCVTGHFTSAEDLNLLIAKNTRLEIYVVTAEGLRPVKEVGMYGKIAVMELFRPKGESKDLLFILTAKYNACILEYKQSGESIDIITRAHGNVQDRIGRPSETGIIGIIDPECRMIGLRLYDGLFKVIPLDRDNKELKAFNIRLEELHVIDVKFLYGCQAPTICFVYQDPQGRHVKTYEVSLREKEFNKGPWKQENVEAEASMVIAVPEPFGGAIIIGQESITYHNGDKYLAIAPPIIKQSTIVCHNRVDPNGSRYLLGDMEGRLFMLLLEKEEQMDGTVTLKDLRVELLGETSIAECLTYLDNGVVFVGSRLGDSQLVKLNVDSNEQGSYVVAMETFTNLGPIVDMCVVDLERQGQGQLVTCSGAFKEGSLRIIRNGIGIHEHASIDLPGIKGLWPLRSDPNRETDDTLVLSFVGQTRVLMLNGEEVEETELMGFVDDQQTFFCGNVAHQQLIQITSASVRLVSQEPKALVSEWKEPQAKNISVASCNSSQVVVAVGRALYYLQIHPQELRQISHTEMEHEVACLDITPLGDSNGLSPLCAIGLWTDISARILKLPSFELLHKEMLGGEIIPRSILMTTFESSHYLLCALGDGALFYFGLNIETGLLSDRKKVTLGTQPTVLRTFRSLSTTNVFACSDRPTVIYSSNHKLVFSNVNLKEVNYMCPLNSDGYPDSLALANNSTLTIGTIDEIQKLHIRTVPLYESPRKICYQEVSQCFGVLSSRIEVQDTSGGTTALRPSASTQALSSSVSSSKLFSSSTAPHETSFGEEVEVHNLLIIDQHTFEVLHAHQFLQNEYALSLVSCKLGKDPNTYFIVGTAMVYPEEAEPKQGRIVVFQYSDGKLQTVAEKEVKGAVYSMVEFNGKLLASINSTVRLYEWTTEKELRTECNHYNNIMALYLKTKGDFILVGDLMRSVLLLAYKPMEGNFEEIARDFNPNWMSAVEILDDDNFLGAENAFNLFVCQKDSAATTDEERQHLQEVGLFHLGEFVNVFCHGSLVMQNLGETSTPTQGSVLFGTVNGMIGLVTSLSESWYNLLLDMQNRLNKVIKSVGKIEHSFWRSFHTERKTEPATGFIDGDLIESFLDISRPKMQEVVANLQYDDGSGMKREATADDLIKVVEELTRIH

The target of assay [3] is T1, IKZF1 (Homo sapiens, UniProt Q13422+Q96SW2).
T1 construct: endogenously expressing IKZF1 with HiBiT fusion tag via CRISPR; endogenous in cells; host or cells: NCIH929.11 (CRISPR knock-in)
T1 sequence (Q13422 whole entry, the tested form may be a part): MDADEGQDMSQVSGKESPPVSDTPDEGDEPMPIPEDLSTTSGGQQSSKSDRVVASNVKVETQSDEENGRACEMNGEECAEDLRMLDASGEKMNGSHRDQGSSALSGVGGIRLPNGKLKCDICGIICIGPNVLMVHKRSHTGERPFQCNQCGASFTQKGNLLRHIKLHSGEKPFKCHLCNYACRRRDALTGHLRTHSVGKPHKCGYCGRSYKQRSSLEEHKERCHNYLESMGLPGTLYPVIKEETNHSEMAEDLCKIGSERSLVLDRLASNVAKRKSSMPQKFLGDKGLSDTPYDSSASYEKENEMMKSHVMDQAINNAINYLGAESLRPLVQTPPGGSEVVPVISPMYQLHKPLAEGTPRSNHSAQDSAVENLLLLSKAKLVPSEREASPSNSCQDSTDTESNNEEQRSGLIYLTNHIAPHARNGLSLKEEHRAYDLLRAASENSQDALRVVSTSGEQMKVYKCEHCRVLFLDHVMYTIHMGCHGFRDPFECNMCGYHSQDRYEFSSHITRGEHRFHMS
T1 sequence (Q96SW2 whole entry, the tested form may be a part): as the sequence (Q96SW2 whole entry) above
T1 sequence (Q16531 2-1140 partner limits assumed): as the sequence (Q16531 2-1140 partner limits assumed) above
Kind of assay: HiBiT degradation assay, NCIH929.11 (HiBiT-IKZF1) cells. Format: cell-based. Conditions: for DC50: NCHI929.11 cells, 6 hours; for Emax: read-out: HiBiT-Degradation NCHI929.11 IKZF1 6 hours Emax, NCHI929.11 cells. The protocol: RPMI no-phenol red medium and fetal bovine serum (FBS) were purchased from Gibco (Grand Island, NY, USA). Nano-Glo® HiBiT Lytic Assay System was purchased from Promega (Madison, WI, USA). NCIH929.11 (HiBiT-IKZF1) cell line was generated in house, endogenously expressing IKZF1 with HiBiT fusion tag via CRISPR. Cell culture flasks and 384-well microplates were acquired from VWR (Radnor, PA, USA).
IKZF 1 degradation was determined based on quantification of luminescent signal using Nano-Glo® HiBiT Lytic Assay kit. Test compounds were added to the 384-well plate from a top concentration of 10 μM with 11 points, half-log titration in duplicates. NCIH929.11 cells expressing HiBiT-tagged TKZF1 were added into 384-well plates in RPMI medium containing 10% FBS and 0.05 mM 2-mercaptoethanol at a cell density of 15000 cells per well. The plates were kept at 37° C. with […] for 6 hours. Cells treated in the absence of the test compound were the negative control and wells containing media only were the positive control. After 6-hour incubation, Nano-Glo® HiBiT Lytic Assay reagents were added to the designated wells. Luminescence was acquired on EnVision™ Multilabel Reader (PerkinElmer, Santa Clara, CA, USA).

For assay [4], the target named is T2, CRBN (Homo sapiens, UniProt Q96SW2).
T2 construct: expressed in transfected cells; host or cells: 293T (line named 293T.116)
T2 sequence (Q96SW2 whole entry): as the sequence (Q96SW2 whole entry) above
T2 sequence (Q16531 2-1140 partner limits assumed): as the sequence (Q16531 2-1140 partner limits assumed) above
Kind of assay: NanoBRET CRBN binding, 293T.116 cells. The conditions noted are these: 2 hours. Background: BRET reads energy transfer from a luciferase to a nearby fluorophore.

In assay [5] the target is IKZF4 (Homo sapiens, UniProt Q96SW2+Q9H2S9). The conditions noted are these: cited from earlier work.
Sequence of IKZF4 (Q9H2S9 whole entry): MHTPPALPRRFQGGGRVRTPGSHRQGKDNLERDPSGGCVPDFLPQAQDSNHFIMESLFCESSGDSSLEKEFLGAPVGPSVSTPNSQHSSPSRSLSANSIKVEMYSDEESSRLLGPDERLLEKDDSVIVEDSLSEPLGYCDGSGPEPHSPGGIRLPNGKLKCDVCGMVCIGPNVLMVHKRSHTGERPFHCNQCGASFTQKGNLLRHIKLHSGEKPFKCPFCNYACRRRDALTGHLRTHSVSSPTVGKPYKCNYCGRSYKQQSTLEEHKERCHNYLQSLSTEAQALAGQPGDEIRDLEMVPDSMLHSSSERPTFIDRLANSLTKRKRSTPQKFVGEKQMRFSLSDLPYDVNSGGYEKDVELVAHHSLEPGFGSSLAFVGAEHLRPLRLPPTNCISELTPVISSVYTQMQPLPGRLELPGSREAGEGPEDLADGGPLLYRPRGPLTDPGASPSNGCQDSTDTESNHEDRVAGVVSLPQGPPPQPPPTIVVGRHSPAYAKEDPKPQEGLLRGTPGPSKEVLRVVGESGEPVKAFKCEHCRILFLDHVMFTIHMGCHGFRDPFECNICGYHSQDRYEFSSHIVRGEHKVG
Sequence of IKZF4 (Q96SW2 whole entry): as the sequence (Q96SW2 whole entry) above
Sequence of IKZF4 (Q16531 2-1140 partner limits assumed): as the sequence (Q16531 2-1140 partner limits assumed) above
Assay [6] concerns the target IKZF2 (Homo sapiens, UniProt Q96SW2+Q9UKS7). Conditions: cited from earlier work.
Where [7] appears, read: 293T.114 cells, 6 hours, read-out: HiBiT-Degradation 293T.114 GSPT1 6 hours DC50.
Where [8] appears, read: read-out: GSPT1 Emax @ 10 μM 24 Hours, 24 hours.
The mark [9] stands for this setting: read-out: HiBiT-Degradation 293T.114 GSPT1 6 hours Emax, 293T.114 cells, 6 hours.
The mark [10] stands for this setting: 293T.114 cells, 24 hours, read-out: HiBiT-Degradation 293T.114 GSPT1 24 hours DC50.
[11] abbreviates: 293T.114 cells, 24 hours, read-out: HiBiT-Degradation 293T.114 GSPT1 24 hours Emax.
The mark [12] stands for this setting: 293T.114 cells, 48 hours, read-out: HiBiT-Degradation 293T.114 GSPT1 48 hours DC50.
[13] abbreviates: 293T.114 cells, 48 hours, read-out: HiBiT-Degradation 293T.114 GSPT1 48 hours Emax.

SMILES strings stand for the structures. pIC50: −log10 of the molar value. Read-outs that look alike come from different tables or passages of the source.

Sequence of IKZF2 (Q9UKS7 whole entry): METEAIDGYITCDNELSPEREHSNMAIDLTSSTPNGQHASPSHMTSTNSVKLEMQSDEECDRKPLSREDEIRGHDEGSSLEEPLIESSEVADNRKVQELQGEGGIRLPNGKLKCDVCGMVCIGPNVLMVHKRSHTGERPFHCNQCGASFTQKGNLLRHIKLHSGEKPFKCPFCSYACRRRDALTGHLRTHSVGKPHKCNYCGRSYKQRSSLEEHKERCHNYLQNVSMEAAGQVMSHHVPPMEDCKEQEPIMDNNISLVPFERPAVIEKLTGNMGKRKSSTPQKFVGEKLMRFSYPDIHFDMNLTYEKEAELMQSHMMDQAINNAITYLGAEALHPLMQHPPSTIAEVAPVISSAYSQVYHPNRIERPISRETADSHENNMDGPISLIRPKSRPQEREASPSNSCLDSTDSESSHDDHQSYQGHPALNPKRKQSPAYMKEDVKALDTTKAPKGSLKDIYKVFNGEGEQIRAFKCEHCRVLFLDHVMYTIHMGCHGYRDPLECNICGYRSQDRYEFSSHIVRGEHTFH
Sequence of IKZF2 (Q96SW2 whole entry): as the sequence (Q96SW2 whole entry) above
Sequence of IKZF2 (Q16531 2-1140 partner limits assumed): as the sequence (Q16531 2-1140 partner limits assumed) above

Broadly, the DC50 is the concentration at which degradation of the target reaches its halfway point. The term Emax denotes the greatest response seen or fitted, relative to the assay's reference. As a reminder, the pIC50 is the negative decadic logarithm of the IC50, by convention in mol/L. `CCOC(=O)c1ccc(Cc2ccc3c4c(cccc24)N(C2CCC(=O)NC2=O)C3=O)cc1` (stereo not drawn) [Compound 61, ethyl 4-((1-(2,6-dioxopiperidin-3-yl)-2-oxo-1,2-dihydrobenzo[cd]indol-5-yl)methyl)benzoate]: the DC50 in assay [1] is 0.1 to 1 µM; in assay [2] (setting [7]), greater than 10 µM; in assay [3] it was 0.1 to 1 µM. Besides, the Emax in assay [1] was less than 45%; in assay [2] (setting [8]), less than 45%; in assay [2] (setting [9]), 45 to 60%; in assay [3], less than 45%. In addition, in assay [4], the pIC50 was greater than 7.00.
With `CCOc1ccc(Cc2ccc3c4c(cccc24)N(C2CCC(=O)NC2=O)C3=O)cc1` (stereo not drawn) [Compound 68, 3-[5-[(4-ethoxyphenyl)methyl]-2-oxo-benzo[cd]indol-1-yl]piperidine-2,6-dione], the DC50 in assay [1], in assay [2] (setting [7]) and in assay [3] was greater than 10 µM each time. The Emax in assay [1], in assay [2] (setting [9]) and in assay [3] was 60 to 95% in each case. In addition, the pIC50 in assay [4] was greater than 7.00.
In the case of `Nc1cccc2c1C(=O)N(C1CCC(=O)NC1=O)C2=O` (stereo not drawn) [pomalidomide], the “degradation of IKZF4” value in assay [5] is on record as “not degraded”. Besides, the “degradation of IKZF2” value in assay [6] is reported as “not degraded”.
For the compound `O=C1CCC(N2C(=O)c3ccc(CNCCc4ccc(Cl)cc4)c4cccc2c34)C(=O)N1` (stereo not drawn) [Compound 157], the DC50 in assay [1] was less than 0.1 µM; in assay [2] (setting [10]), greater than 10 µM; in assay [2] (setting [12]), greater than 10 µM; in assay [3] it was 0.1 to 1 µM. Moreover, the Emax in assay [1] is less than 45%; in assay [2] (setting [11]), 60 to 95%; in assay [2] (setting [13]) it was 60 to 95%; in assay [3], less than 45%. Also, the pIC50 in assay [4] was greater than 7.00.
As to `CCOC(=O)c1cccc(Cc2ccc3c4c(cccc24)N(C2CCC(=O)NC2=O)C3=O)c1` (stereo not drawn) [Compound 62, ethyl 3-((1-(2,6-dioxopiperidin-3-yl)-2-oxo-1,2-dihydrobenzo[cd]indol-5-yl)methyl)benzoate], the DC50 in assay [1], in assay [2] (setting [7]) and in assay [3] was greater than 10 µM throughout. For the same compound, the Emax in assay [1] is 60 to 95%; in assay [2] (setting [8]), less than 45%; in assay [2] (setting [9]) it was 60 to 95%; in assay [3], 60 to 95%. In assay [4], the pIC50 is greater than 7.00.
Consider `CC(C)OC1CCN(Cc2cc3c4c(cccc4c2)N(C2CCC(=O)NC2=O)C3=O)CC1` (stereo not drawn) [Compound 161], for which the DC50 in assay [1] is greater than 10 µM; in assay [2] (setting [10]) it was greater than 10 µM; in assay [2] (setting [12]), greater than 10 µM; in assay [3], 1 to 10 µM. The Emax in assay [1] was 60 to 95%; in assay [2] (setting [11]) it was 60 to 95%; in assay [2] (setting [13]) it was 60 to 95%; in assay [3] it was less than 45%. This compound had a pIC50 in assay [4] greater than 7.00.
For `CCOc1ccc(Cc2ccc3c4c(cccc24)N(C2CCC(=O)NC2=O)C3=O)c(F)c1` (stereo not drawn) [Compound 60, 3-(5-(4-ethoxy-2-fluorobenzyl)-2-oxobenzo[cd]indol-1(2H)-yl)piperidine-2,6-dione], the DC50 in assay [1], in assay [2] (setting [7]) and in assay [3] was greater than 10 µM throughout. For the same compound, the Emax is 60 to 95% in assay [1], less than 45% in assay [2] (setting [8]), 60 to 95% in assay [2] (setting [9]) and 60 to 95% in assay [3]. In assay [4], this compound gave a pIC50 greater than 7.00.
For the compound `CC1(C(=O)N2CCC(n3cc(Cc4ccc5c6c(cccc46)C(=O)N5[C@H]4CCC(=O)NC4=O)cn3)CC2)CCC1` [Compound 206, (3S)-3-[6-[[1-[1-(1-methylcyclobutanecarbonyl)-4-piperidyl]pyrazol-4-yl]methyl]-2-oxo-benzo[cd]indol-1-yl]piperidine-2,6-dione], the values for the DC50 in assay [1], in assay [2] (setting [7]) and in assay [3] were less than 0.1 µM, greater than 10 µM and less than 0.1 µM, respectively. In addition, the Emax is less than 45% in assay [1], greater than 95% in assay [2] (setting [9]) and less than 45% in assay [3]. The compound further gave a pIC50 in assay [4] greater than 7.00.
Consider `Cc1nc2cccc(N)c2c(=O)n1C1CCC(=O)NC1=O` (stereo not drawn) [CC-122], for which, in assay [5], the “degradation of IKZF4” value was “not degraded”. In addition, in assay [6], the “degradation of IKZF2” value is listed as “not degraded”.
For `O=C1CCC(N2C(=O)c3ccc(CN4CC(Oc5ccccc5)C4)c4cccc2c34)C(=O)N1` (stereo not drawn) [Compound 158], the DC50 in assay [1], in assay [2] (setting [7]), in assay [2] (setting [10]) and in assay [3] was less than 0.1 µM each time. The maximum response (Emax) in assay [1], in assay [2] (setting [11]), in assay [2] (setting [9]) and in assay [3] was less than 45% each time. For the same compound, the pIC50 in assay [4] was greater than 7.00.
Take `CCOC(=O)c1cc(Cc2ccc3c4c(cccc24)N(C2CCC(=O)NC2=O)C3=O)ccc1F` (stereo not drawn) [Compound 69, ethyl 5-[[1-(2,6-dioxo-3-piperidyl)-2-oxo-benzo[cd]indol-5-yl]methyl]-2-fluoro-benzoate]: the DC50 in assay [1], in assay [2] (setting [7]) and in assay [3] was greater than 10 µM in each case. In addition, the Emax in assay [1], in assay [2] (setting [9]) and in assay [3] was 60 to 95% each time. This compound also had a pIC50 in assay [4] greater than 7.00.
Consider `O=C1CC[C@H](N2Cc3c(OCc4ccc(CN5CCOCC5)cc4)cccc3C2=O)C(=O)N1` [CC-220], for which the “degradation of IKZF4” value in assay [5] is on record as “efficiently degraded”. Besides, the “degradation of IKZF2” value in assay [6] is “efficiently degraded”.
As to `O=C1CCC(N2C(=O)c3ccc(CNC(=O)C(F)(F)c4ccc(Cl)cc4)c4cccc2c34)C(=O)N1` (stereo not drawn) [Compound 64, 2-(4-chlorophenyl)-N-[[1-(2,6-dioxo-3-piperidyl)-2-oxo-benzo[cd]indol-5-yl]methyl]-2,2-difluoro-acetamide], the DC50 is less than 0.1 µM in assay [1], greater than 10 µM in assay [2] (setting [7]) and greater than 10 µM in assay [3]. For the same compound, the Emax in assay [1] was less than 45%; in assay [2] (setting [8]), less than 45%; in assay [2] (setting [9]), 45 to 60%; in assay [3], 45 to 60%. Also, the pIC50 in assay [4] was greater than 7.00.
On to `N#Cc1ccc(N2CCN(Cc3ccc(Cc4ccc5c6c(cccc46)C(=O)N5[C@H]4CCC(=O)NC4=O)cc3)CC2)c(F)c1` [Compound 78, (S)-4-(4-(4-((1-(2,6-dioxopiperidin-3-yl)-2-oxo-1,2-dihydrobenzo[cd]indol-6-yl)methyl)benzyl)piperazin-1-yl)-3-fluorobenzonitrile], for which the DC50 in assay [1] is less than 0.1 µM; in assay [2] (setting [7]), greater than 10 µM; in assay [3], less than 0.1 µM. Moreover, the results for the Emax in assay [1], in assay [2] (setting [9]) and in assay [3] were less than 45%, 60 to 95% and less than 45%, respectively. Also, the pIC50 in assay [4] is greater than 7.00.
Turning to `O=C1CCC(N2C(=O)c3ccc(CNCc4cc(F)ccc4F)c4cccc2c34)C(=O)N1` (stereo not drawn) [Compound 155, 3-[5-[[(2,5-difluorophenyl)methylamino]methyl]-2-oxo-benzo[cd]indol-1-yl]piperidine-2,6-dione], the DC50 in assay [1] was less than 0.1 µM; in assay [2] (setting [10]), greater than 10 µM; in assay [2] (setting [12]) it was greater than 10 µM; in assay [3] it was greater than 10 µM. Also, the Emax was less than 45% in assay [1], 60 to 95% in assay [2] (setting [11]), 60 to 95% in assay [2] (setting [13]) and 45 to 60% in assay [3]. The same compound had a pIC50 in assay [4] greater than 7.00.
